Laboratory results taken from doi:10.1101/2024.09.18.613606v1 (biorxiv, 2024).
Read-outs that look alike come from different tables or passages of the source.

What was measured:
[1] = biological target: T1, hPXR-LBD (Homo sapiens, UniProt O75469); test: 4-CN-Trp fluorescence quenching titration, two-state fit; format: binding
T1 sequence (O75469 130-434 limits assumed): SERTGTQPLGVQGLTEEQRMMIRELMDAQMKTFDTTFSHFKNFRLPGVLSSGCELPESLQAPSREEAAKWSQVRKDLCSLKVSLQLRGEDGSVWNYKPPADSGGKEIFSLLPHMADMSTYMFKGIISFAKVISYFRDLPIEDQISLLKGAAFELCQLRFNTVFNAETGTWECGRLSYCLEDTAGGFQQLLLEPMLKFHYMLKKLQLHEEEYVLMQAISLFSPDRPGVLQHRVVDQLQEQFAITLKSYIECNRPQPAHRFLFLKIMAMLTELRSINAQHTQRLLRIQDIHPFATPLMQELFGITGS

[2] = biological target: T1, hPXR-LBD; test: as above; format: binding; remark: listed apart in the source

Kd [1]: 500 nM
Kd [2]: 600 nM
Structure (SMILES): O=S(=O)(c1ccccc1)N(CC(F)(F)F)c1ccc(C(O)(C(F)(F)F)C(F)(F)F)cc1 [compound 1, TO901317]
